Tests used:
[1] = target: T1, Human Factor XIIa (hFXIIa) (Homo sapiens, UniProt P00748); experiment: Determination of Human Factor XIIa (hFXIIa) inhibition, fluorogenic substrate IC50 assay; assay type: biochemical; settings: fluorogenic substrate H-DPro-Phe-Arg-AFC at Km, 25° C., read-out: Human FXIIa IC50
T1 construct: purchased Enzyme Research Laboratories
T1 sequence (P00748 373-615 limits assumed): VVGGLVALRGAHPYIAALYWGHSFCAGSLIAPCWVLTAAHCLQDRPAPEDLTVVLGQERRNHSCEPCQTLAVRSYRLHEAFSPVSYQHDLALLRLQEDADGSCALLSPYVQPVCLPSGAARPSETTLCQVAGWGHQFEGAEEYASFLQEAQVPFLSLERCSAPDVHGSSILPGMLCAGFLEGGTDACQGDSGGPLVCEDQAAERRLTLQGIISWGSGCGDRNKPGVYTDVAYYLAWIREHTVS
T1 sequence (P00748 20-372 partner limits assumed): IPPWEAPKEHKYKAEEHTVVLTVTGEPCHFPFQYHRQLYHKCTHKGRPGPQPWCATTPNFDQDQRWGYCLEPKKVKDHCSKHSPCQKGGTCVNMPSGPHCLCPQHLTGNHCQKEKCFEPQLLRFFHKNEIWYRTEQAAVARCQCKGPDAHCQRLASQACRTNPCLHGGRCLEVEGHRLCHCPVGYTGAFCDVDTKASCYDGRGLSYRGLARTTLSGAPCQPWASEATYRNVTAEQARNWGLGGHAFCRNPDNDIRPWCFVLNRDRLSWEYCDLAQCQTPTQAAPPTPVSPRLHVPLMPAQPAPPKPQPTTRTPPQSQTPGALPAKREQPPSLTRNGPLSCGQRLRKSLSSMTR
Experimental: Determination of Human Factor XIIa (hFXIIa) inhibition
The Km for the cleavage of the substrate by hFXIIa was determined by standard transformation of the Michaelis-Menten equation, with subsequent inhibition assays performed at substrate Km concentration.

[2] = target: FXa (Homo sapiens, UniProt P00742); experiment: Related protease inhibition: FXa, fluorogenic substrate; assay type: biochemical; settings: fluorogenic substrate at Km, 25° C.; H1-H3 = % activity at 40 μM
Experimental: Human serine protease enzyme Plasma Kallikrein, KLK1, FXa, Plasmin, Thrombin and Trypsin were assayed for enzymatic activity using an appropriate fluorogenic substrate at Km concentration, FXIa at fixed substrate concentration of 100 μM and various concentrations of the test compound.

Chain of FXa (P00742 235-488 limits assumed): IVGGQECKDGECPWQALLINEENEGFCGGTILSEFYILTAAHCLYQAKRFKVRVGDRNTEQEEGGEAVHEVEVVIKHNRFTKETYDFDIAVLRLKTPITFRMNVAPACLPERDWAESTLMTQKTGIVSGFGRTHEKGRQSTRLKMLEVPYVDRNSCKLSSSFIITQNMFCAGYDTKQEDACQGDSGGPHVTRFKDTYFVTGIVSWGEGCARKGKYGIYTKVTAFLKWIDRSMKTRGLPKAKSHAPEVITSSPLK
Chain of FXa (P00742 41-179 partner limits assumed): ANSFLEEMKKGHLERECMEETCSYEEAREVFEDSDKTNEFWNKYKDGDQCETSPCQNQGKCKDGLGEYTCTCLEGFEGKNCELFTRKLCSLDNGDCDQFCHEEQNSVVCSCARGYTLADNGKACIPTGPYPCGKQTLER

Row | IC50 [1] [µM] | IC50 [2] [µM] | Compound
1 | 0.1 to 0.3 | > 40 | CN1CCc2ccc(N3CCc4c(C(=O)NCC5CC5)nn(-c5cccc(Cl)n5)c4C3=O)cc2C1=O [Example 2020, 1-(6-Chloropyridin-2-yl)-N-(cyclopropylmethyl)-6-(2-methyl-1-oxo-1,2,3,4-tetrahydroisoquinolin-7-yl)-7-oxo-4,5,6,7-tetrahydro-1H-pyrazolo[3,4-c]pyridine-3-carboxamide]
2 | 0.01 to 0.1 | > 40 | CCNC(=O)c1nn(-c2cc(C)cc(CN)c2)c2c1CCN(c1ccc3c(c1)C(=O)N(C)CC3)C2=O [Example 2024, 1-(3-(aminomethyl)-5-methylphenyl)-N-ethyl-6-(2-methyl-1-oxo-1,2,3,4-tetrahydroisoquinolin-7-yl)-7-oxo-4,5,6,7-tetrahydro-1H-pyrazolo[3,4-c]pyridine-3-carboxamide]
3 | 0.01 to 0.1 | 10 to 40 | Cc1cc(CN)cc(-n2nc(C(=O)O)c3c2C(=O)N(c2ccc4c(c2)C(=O)N(C)CC4)CC3)c1 [Example 2025, 1-(3-(aminomethyl)-5-methylphenyl)-6-(2-methyl-1-oxo-1,2,3,4-tetrahydroisoquinolin-7-yl)-7-oxo-4,5,6,7-tetrahydro-1H-pyrazolo[3,4-c]pyridine-3-carboxylic acid]
4 | 3 to 10 | > 40 | CCNC(=O)c1nn(-c2cncc(C)c2)c2c1CCN(c1ccc3c(c1)C(=O)N(C)CC3)C2=O [Example 2027, N-ethyl-6-(2-methyl-1-oxo-1,2,3,4-tetrahydroisoquinolin-7-yl)-1-(5-methylpyridin-3-yl)-7-oxo-4,5,6,7-tetrahydro-1H-pyrazolo[3,4-c]pyridine-3-carboxamide]
5 | 10 to 40 | > 40 | CCNC(=O)c1nn(-c2ccc(C)cn2)c2c1CCN(c1ccc3c(c1)C(=O)N(C)CC3)C2=O [Example 2028, N-ethyl-6-(2-methyl-1-oxo-1,2,3,4-tetrahydroisoquinolin-7-yl)-1-(5-methylpyridin-2-yl)-7-oxo-4,5,6,7-tetrahydro-1H-pyrazolo[3,4-c]pyridine-3-carboxamide]
6 | 10 to 40 | > 40 | CCNC(=O)c1nn(-c2cc(Cl)ccc2C)c2c1CCN(c1ccc3c(c1)C(=O)N(C)CC3)C2=O [Example 2029, 1-(5-chloro-2-methylphenyl)-N-ethyl-6-(2-methyl-1-oxo-1,2,3,4-tetrahydroisoquinolin-7-yl)-7-oxo-4,5,6,7-tetrahydro-1H-pyrazolo[3,4-c]pyridine-3-carboxamide]
7 | 3 to 10 | 10 to 40 | CCNC(=O)c1nn(-c2cc(Cl)ccc2F)c2c1CCN(c1ccc3c(c1)C(=O)N(C)CC3)C2=O [Example 2030, 1-(5-chloro-2-fluorophenyl)-N-ethyl-6-(2-methyl-1-oxo-1,2,3,4-tetrahydroisoquinolin-7-yl)-7-oxo-4,5,6,7-tetrahydro-1H-pyrazolo[3,4-c]pyridine-3-carboxamide]
8 | 0.3 to 1 | > 40 | CCNC(=O)c1nn(-c2cccc(C)c2F)c2c1CCN(c1ccc3c(c1)C(=O)N(C)CC3)C2=O [Example 2032, N-ethyl-1-(2-fluoro-3-methylphenyl)-6-(2-methyl-1-oxo-1,2,3,4-tetrahydroisoquinolin-7-yl)-7-oxo-4,5,6,7-tetrahydro-1H-pyrazolo[3,4-c]pyridine-3-carboxamide]
9 | 0.3 to 1 | > 40 | CCNC(=O)c1nn(-c2cc(Cl)cc(CO)c2)c2c1CCN(c1ccc3c(c1)C(=O)N(C)CC3)C2=O [Example 2033, 1-(3-chloro-5-(hydroxymethyl)phenyl)-N-ethyl-6-(2-methyl-1-oxo-1,2,3,4-tetrahydroisoquinolin-7-yl)-7-oxo-4,5,6,7-tetrahydro-1H-pyrazolo[3,4-c]pyridine-3-carboxamide]
10 | 3 to 10 | 10 to 40 | CCNC(=O)c1nn(-c2cc(C)ccn2)c2c1CCN(c1ccc3c(c1)C(=O)N(C)CC3)C2=O [Example 2035, N-ethyl-6-(2-methyl-1-oxo-1,2,3,4-tetrahydroisoquinolin-7-yl)-1-(4-methylpyridin-2-yl)-7-oxo-4,5,6,7-tetrahydro-1H-pyrazolo[3,4-c]pyridine-3-carboxamide]
11 | 1 to 3 | > 40 | CCNC(=O)c1nn(-c2cccc(Cl)c2C)c2c1CCN(c1ccc3c(c1)C(=O)N(C)CC3)C2=O [Example 2036, 1-(3-chloro-2-methylphenyl)-N-ethyl-6-(2-methyl-1-oxo-1,2,3,4-tetrahydroisoquinolin-7-yl)-7-oxo-4,5,6,7-tetrahydro-1H-pyrazolo[3,4-c]pyridine-3-carboxamide]
12 | 0.01 to 0.1 | 10 to 40 | Cc1cc(CNC(=O)c2nn(-c3cccc(Cl)c3F)c3c2CCN(c2ccc4c(c2)C(=O)N(C)CC4)C3=O)n[nH]1 [Example 2040, 1-(3-chloro-2-fluorophenyl)-6-(2-methyl-1-oxo-1,2,3,4-tetrahydroisoquinolin-7-yl)-N-((5-methyl-1H-pyrazol-3-yl)methyl)-7-oxo-4,5,6,7-tetrahydro-1H-pyrazolo[3,4-c]pyridine-3-carboxamide]
13 | 0.1 to 0.3 | > 40 | Cc1nc2c(C(=O)NCC3CC3)nn(-c3cccc(Cl)c3)c2c(=O)n1-c1ccc2c(c1)CN(CCO)CC2 [Example 3003, 1-(3-chlorophenyl)-N-(cyclopropylmethyl)-6-(2-(2-hydroxyethyl)-1,2,3,4-tetrahydroisoquinolin-7-yl)-5-methyl-7-oxo-6,7-dihydro-1H-pyrazolo[4,3-d]pyrimidine-3-carboxamide]
14 | 0.1 to 0.3 | 3 to 10 | Cc1nc2c(C(=O)NCC3CC3)nn(-c3cccc(Cl)c3)c2c(=O)n1-c1ccc2c(c1)CN(C)CC2 [Example 3004, 1-(3-chlorophenyl)-N-(cyclopropylmethyl)-5-methyl-6-(2-methyl-1,2,3,4-tetrahydroisoquinolin-7-yl)-7-oxo-6,7-dihydro-1H-pyrazolo[4,3-d]pyrimidine-3-carboxamide]
15 | 0.01 to 0.1 | 10 to 40 | Cc1cn(C)nc1CNC(=O)c1nn(-c2cccc(Cl)c2)c2c(=O)n(-c3ccc4c(c3)CN(CCO)CC4)c(C)nc12 [Example 3005, 1-(3-Chlorophenyl)-N-[(1,4-dimethylpyrazol-3-yl)methyl]-6-[2-(2-hydroxyethyl)-3,4-dihydro-1H-isoquinolin-7-yl]-5-methyl-7-oxo-pyrazolo[4,3-d]pyrimidine-3-carboxamide]
16 | 0.01 to 0.1 | 1 to 3 | Cc1cn(C)nc1CNC(=O)c1nn(-c2cccc(Cl)c2)c2c(=O)n(-c3ccc4c(c3)CN(C)CC4)c(C)nc12 [Example 3006, 1-(3-chlorophenyl)-N-((1,4-dimethyl-1H-pyrazol-3-yl)methyl)-5-methyl-6-(2-methyl-1,2,3,4-tetrahydroisoquinolin-7-yl)-7-oxo-6,7-dihydro-1H-pyrazolo[4,3-d]pyrimidine-3-carboxamide]
17 | 0.3 to 1 | 3 to 10 | Cc1nc2c(CNS(=O)(=O)C3CC3)nn(-c3cccc(Cl)c3)c2c(=O)n1-c1ccc2c(c1)CN(CCO)CC2 [Example 3007, N-[[1-(3-Chlorophenyl)-6-[2-(2-hydroxyethyl)-3,4-dihydro-1H-isoquinolin-7-yl]-5-methyl-7-oxopyrazolo[4,3-d]pyrimidin-3-yl]methyl]cyclopropanesulfonamide]
18 | 0.3 to 1 | 3 to 10 | Cc1nc2c(CNC(=O)C3CC3)nn(-c3cccc(Cl)c3)c2c(=O)n1-c1ccc2c(c1)CN(CCO)CC2 [Example 3008, N-((1-(3-chlorophenyl)-6-(2-(2-hydroxyethyl)-1,2,3,4-tetrahydroisoquinolin-7-yl)-5-methyl-7-oxo-6,7-dihydro-1H-pyrazolo[4,3-d]pyrimidin-3-yl)methyl)cyclopropanecarboxamide]
19 | 0.3 to 1 | 3 to 10 | Cc1cn(C)nc1C(=O)NCc1nn(-c2cccc(Cl)c2)c2c(=O)n(-c3ccc4c(c3)CN(CCO)CC4)c(C)nc12 [Example 3009, N-[[1-(3-Chlorophenyl)-6-[2-(2-hydroxyethyl)-3,4-dihydro-1H-isoquinolin-7-yl]-5-methyl-7-oxopyrazolo[4,3-d]pyrimidin-3-yl]methyl]-1,4-dimethylpyrazole-3-carboxamide]
20 | 0.3 to 1 | 3 to 10 | Cc1ccncc1C(=O)NCc1nn(-c2cccc(Cl)c2)c2c(=O)n(-c3ccc4c(c3)CN(CCO)CC4)c(C)nc12 [Example 3010, N-((1-(3-chlorophenyl)-6-(2-(2-hydroxyethyl)-1,2,3,4-tetrahydroisoquinolin-7-yl)-5-methyl-7-oxo-6,7-dihydro-1H-pyrazolo[4,3-d]pyrimidin-3-yl)methyl)-4-methylnicotinamide]
